The text below walks through data of patent US12065436B2, “Cardiac sarcomere inhibitors” (Cytokinetics, Inc., priority 2018, dated 2024).

Where only a bound is given, the exact number is not on record here.

This test has as its target bovine cardiac myofibrils (full-length cardiac myosin ATPase in the native sarcomere) (Bos taurus (Bovine), UniProt Q9BE39). Kind of test: Skinned bovine cardiac myofibril ATPase assay (PK/LDH-coupled). The class given is biochemical. The settings on record: Ca2+ activating to 75% of maximal rate; for CDMF75 IC15: concentration giving 15% inhibition; for IC50: read-out: CDMF75 IC50. A digest of the protocol:
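Triton-skinned bovine left-ventricle myofibrils (1 mg/mL) in PM 12 buffer (12 mM PIPES, 2 mM MgCl2, pH 6.8) with 50 μM ATP, 0.6 mM EGTA and CaCl2 set for 50% or 75% activation. Steady-state ATPase inhibition followed by PK/LDH-coupled NADH oxidation at 340 nm.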

bovine cardiac myofibrils (full-length cardiac myosin ATPase in the native sarcomere), sequence (Q9BE39 whole entry): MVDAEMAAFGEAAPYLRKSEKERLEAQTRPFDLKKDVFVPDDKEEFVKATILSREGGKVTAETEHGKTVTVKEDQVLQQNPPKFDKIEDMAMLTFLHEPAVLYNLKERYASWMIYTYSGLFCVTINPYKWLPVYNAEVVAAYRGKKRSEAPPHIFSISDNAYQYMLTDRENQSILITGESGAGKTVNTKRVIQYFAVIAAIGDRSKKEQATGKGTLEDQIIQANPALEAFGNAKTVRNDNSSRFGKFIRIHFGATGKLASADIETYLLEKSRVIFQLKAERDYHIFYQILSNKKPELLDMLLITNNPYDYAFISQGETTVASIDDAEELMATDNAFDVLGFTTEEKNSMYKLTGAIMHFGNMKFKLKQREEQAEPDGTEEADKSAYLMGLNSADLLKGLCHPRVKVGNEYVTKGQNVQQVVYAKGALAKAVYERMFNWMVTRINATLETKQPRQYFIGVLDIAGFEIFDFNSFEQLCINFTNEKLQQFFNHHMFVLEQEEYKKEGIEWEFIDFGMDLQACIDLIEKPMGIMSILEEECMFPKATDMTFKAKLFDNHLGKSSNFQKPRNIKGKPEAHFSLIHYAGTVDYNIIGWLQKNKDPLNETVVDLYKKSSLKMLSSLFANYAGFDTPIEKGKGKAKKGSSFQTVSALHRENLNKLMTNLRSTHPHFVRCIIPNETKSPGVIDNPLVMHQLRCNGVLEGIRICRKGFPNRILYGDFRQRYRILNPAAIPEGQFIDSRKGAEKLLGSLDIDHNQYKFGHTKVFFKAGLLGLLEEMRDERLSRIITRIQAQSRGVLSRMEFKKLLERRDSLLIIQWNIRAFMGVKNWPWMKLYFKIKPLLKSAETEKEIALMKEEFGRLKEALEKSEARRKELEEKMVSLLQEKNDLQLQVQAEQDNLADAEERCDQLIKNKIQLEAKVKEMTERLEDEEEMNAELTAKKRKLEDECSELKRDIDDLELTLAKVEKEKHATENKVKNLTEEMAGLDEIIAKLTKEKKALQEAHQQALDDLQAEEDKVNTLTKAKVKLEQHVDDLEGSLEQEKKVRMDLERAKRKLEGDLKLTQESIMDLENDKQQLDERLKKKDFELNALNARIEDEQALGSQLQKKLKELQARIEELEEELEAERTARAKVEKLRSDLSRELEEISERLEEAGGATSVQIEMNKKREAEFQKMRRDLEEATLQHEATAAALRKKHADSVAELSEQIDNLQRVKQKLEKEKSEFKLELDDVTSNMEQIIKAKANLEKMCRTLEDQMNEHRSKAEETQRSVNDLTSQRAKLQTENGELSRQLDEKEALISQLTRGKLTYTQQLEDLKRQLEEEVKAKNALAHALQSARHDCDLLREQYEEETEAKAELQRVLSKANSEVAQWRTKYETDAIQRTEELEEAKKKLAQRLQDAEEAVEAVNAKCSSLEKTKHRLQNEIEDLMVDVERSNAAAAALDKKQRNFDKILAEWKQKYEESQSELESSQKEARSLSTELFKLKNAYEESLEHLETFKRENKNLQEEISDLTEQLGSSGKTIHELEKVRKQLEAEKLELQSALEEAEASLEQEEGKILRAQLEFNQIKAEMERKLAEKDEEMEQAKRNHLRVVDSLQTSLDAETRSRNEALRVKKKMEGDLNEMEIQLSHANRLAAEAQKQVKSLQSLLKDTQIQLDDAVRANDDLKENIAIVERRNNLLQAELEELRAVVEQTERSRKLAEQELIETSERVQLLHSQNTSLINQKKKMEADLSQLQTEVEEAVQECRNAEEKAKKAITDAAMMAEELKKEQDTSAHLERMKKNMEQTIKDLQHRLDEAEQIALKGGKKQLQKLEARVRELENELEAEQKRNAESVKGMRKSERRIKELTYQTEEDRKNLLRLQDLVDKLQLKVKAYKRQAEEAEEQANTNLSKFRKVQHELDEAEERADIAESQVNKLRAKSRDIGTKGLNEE
bovine cardiac myofibrils (full-length cardiac myosin ATPase in the native sarcomere), sequence (P85100 whole entry partner): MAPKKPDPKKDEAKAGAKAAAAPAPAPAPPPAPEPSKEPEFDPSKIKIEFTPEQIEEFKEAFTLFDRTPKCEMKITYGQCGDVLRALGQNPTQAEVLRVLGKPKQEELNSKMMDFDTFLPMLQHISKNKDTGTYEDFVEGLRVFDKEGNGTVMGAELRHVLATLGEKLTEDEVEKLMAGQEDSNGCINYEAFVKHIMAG
bovine cardiac myofibrils (full-length cardiac myosin ATPase in the native sarcomere), sequence (Q3SZE5 whole entry partner): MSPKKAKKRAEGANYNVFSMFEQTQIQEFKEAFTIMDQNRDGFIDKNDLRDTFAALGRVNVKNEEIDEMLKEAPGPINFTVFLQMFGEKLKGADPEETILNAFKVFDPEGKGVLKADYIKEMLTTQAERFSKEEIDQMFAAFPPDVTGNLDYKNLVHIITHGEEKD

The term IC50 denotes the concentration at which inhibition is half-maximal. Regarding `CCc1nc(-c2ccc3c(c2)CC[C@H]3NC(=O)OCC(C)(C)OC)no1` [Compound 359, 2-methoxy-2-methylpropyl (R)-(5-(5-ethyl-1,2,4-oxadiazol-3-yl)-2,3-dihydro-1H-inden-1-yl)carbamate], the “CDMF75 IC15” value is 2.3 µM and the IC50 was 9.5 µM.
In the same order, the values of `Cc1cc(C(=O)N[C@@H]2CCc3cc(-c4coc(C)n4)ccc32)ccn1` [Compound 146, (R)-2-methyl-N-(5-(2-methyloxazol-4-yl)-2,3-dihydro-1H-inden-1-yl)isonicotinamide] are 21.2 µM and more than 39.2 µM.
In the same order, the values of `Cc1cc(C(=O)N[C@@H]2CCc3cc(-c4noc(C5CC5)n4)ccc32)ccn1` [Compound 389, (R)-N-(5-(5-cyclopropyl-1,2,4-oxadiazol-3-yl)-2,3-dihydro-1H-inden-1-yl)-2-methylisonicotinamide] are 0.6 µM and 1.9 µM.
For the compound `Cc1ncc(C(=O)N[C@@H]2CCc3cc(-c4noc(C(C)C)n4)ccc32)o1` [Compound 391, (R)-N-(5-(5-isopropyl-1,2,4-oxadiazol-3-yl)-2,3-dihydro-1H-inden-1-yl)-2-methyloxazole-5-carboxamide], the “CDMF75 IC15” value came out at 1.3 µM and the IC50 was found to be 4.6 µM.
Consider `COCCn1cc(C(=O)N[C@@H]2CCc3cc(-c4noc(C5CCC5)n4)ccc32)cn1` [Compound 513, (R)-N-(5-(5-cyclobutyl-1,2,4-oxadiazol-3-yl)-2,3-dihydro-1H-inden-1-yl)-1-(2-methoxyethyl)-1H-pyrazole-4-carboxamide], for which the “CDMF75 IC15” value worked out at 2.2 µM and the concentration for half-maximal inhibition (IC50) amounted to 10.9 µM.
Regarding `CC(=O)N[C@@H]1CCc2cc(-c3noc(C(C)C)n3)ccc21` [Compound 395, (R)-N-(5-(5-isopropyl-1,2,4-oxadiazol-3-yl)-2,3-dihydro-1H-inden-1-yl)acetamide], the “CDMF75 IC15” value came to 3.1 µM and the IC50 was found to be 13.5 µM.
The corresponding values for `Cc1cc(C(=O)NC2COc3cc(-c4noc(C)n4)ccc32)n(C)n1` (stereo not drawn) [Compound 155, 1,3-dimethyl-N-(6-(5-methyl-1,2,4-oxadiazol-3-yl)-2,3-dihydrobenzofuran-3-yl)-1H-pyrazole-5-carboxamide] are 1.0 µM and 4.1 µM.
The corresponding values for `CCc1nc(-c2ccc3c(c2)CC[C@H]3NC(=O)c2ccccn2)no1` [Compound 623, (R)-N-(5-(5-ethyl-1,2,4-oxadiazol-3-yl)-2,3-dihydro-1H-inden-1-yl)picolinamide] are 0.4 µM and 1.6 µM.
For `Cc1cc(C(=O)NC2CCc3cc(-c4noc(C(F)F)n4)ccc32)cnn1` (stereo not drawn) [Compound 37, N-(5-(5-(difluoromethyl)-1,2,4-oxadiazol-3-yl)-2,3-dihydro-1H-inden-1-yl)-6-methylpyridazine-4-carboxamide], the “CDMF75 IC15” value stood at 2.1 µM and the IC50 was determined as 9.7 µM.
As to `CCc1nc(-c2ccc3c(c2)CC[C@H]3NC(=O)c2ccno2)no1` [Compound 582, (R)-N-(5-(5-ethyl-1,2,4-oxadiazol-3-yl)-2,3-dihydro-1H-inden-1-yl)isoxazole-5-carboxamide], the “CDMF75 IC15” value was found to be 0.4 µM and the concentration for half-maximal inhibition (IC50) stood at 1.3 µM.
In the same order, the values of `CCc1nc(-c2ccc3c(c2)CC[C@H]3NC(=O)[C@H]2CCNC(=O)C2)no1` [Compound 355, (S)-N-((R)-5-(5-ethyl-1,2,4-oxadiazol-3-yl)-2,3-dihydro-1H-inden-1-yl)-2-oxopiperidine-4-carboxamide] are 2.9 µM and 10.9 µM.
The corresponding values for `O=C(Nc1ccccc1)NC1CCc2cc(-c3noc(C(F)F)n3)ccc21` (stereo not drawn) [Compound 13, 1-(5-(5-(difluoromethyl)-1,2,4-oxadiazol-3-yl)-2,3-dihydro-1H-inden-1-yl)-3-phenylurea] are 0.5 µM and 22.1 µM.
The corresponding values for `Cc1nc(-c2ccc3c(c2)CCC3NC(=O)c2nocc2C)no1` (stereo not drawn) [Compound 105, 4-methyl-N-(5-(5-methyl-1,2,4-oxadiazol-3-yl)-2,3-dihydro-1H-inden-1-yl)isoxazole-3-carboxamide] are 2.2 µM and 8.9 µM.
Take `O=C(N[C@@H]1CCc2cc(-c3noc(C4CCC4)n3)ccc21)c1nn[nH]n1` [Compound 505, (R)-N-(5-(5-cyclobutyl-1,2,4-oxadiazol-3-yl)-2,3-dihydro-1H-inden-1-yl)-2H-tetrazole-5-carboxamide]: the “CDMF75 IC15” value was determined as 6.5 µM and the IC50 is 29.2 µM.
`Cc1nc(-c2ccc3c(c2)CCC3NC(=O)c2cnn3c2CCC3)no1` (stereo not drawn) [Compound 57, N-(5-(5-methyl-1,2,4-oxadiazol-3-yl)-2,3-dihydro-1H-inden-1-yl)-5,6-dihydro-4H-pyrrolo[1,2-b]pyrazole-3-carboxamide]: the “CDMF75 IC15” value came out at 2.8 µM and the IC50 amounted to 8.9 µM.
The corresponding values for `CCc1nc(-c2ccc3c(c2)CC[C@H]3NC(=O)c2cnn(C[C@H](O)CO)c2)no1` [Compound 540, N-[(1R)-5-(5-ethyl(1,2,4-oxadiazol-3-yl))indanyl][1-((2S)-2,3-dihydroxypropyl)pyrazol-4-yl]carboxamide] are 0.7 µM and 2.9 µM.
The corresponding values for `COCc1nc(-c2ccc3c(c2)OC[C@H]3NC(=O)c2cccc([C@H](C)O)c2)no1` [Compound 736, 3-((S)-1-hydroxyethyl)-N-((S)-6-(5-(methoxymethyl)-1,2,4-oxadiazol-3-yl)-2,3-dihydrobenzofuran-3-yl)benzamide] are 1.2 µM and 5.4 µM.
The corresponding values for `CC(=O)N[C@@H]1CCc2cc(-c3noc(C)n3)ccc21` [Compound 407, (R)-N-(5-(5-methyl-1,2,4-oxadiazol-3-yl)-2,3-dihydro-1H-inden-1-yl)acetamide] are 3.2 µM and 13.8 µM.
On to `Cc1ccc(-c2ccc3c(c2)CC[C@H]3NC(=O)c2ccnn2C)cn1` [Compound 375, (R)-1-methyl-N-(5-(6-methylpyridin-3-yl)-2,3-dihydro-1H-inden-1-yl)-1H-pyrazole-5-carboxamide], for which the “CDMF75 IC15” value was determined as 10.6 µM and the IC50 was more than 39.2 µM.
The corresponding values for `O=C(N[C@@H]1CCc2cc(-c3noc(C(F)F)n3)ccc21)c1cc(O)no1` [Compound 674, (R)-N-(5-(5-(difluoromethyl)-1,2,4-oxadiazol-3-yl)-2,3-dihydro-1H-inden-1-yl)-3-hydroxyisoxazole-5-carboxamide] are 1.9 µM and 7.4 µM.
In the same order, the values of `[2H]C([2H])([2H])C(=O)N[C@@H]1COc2cc(-c3noc(CC)n3)ccc21` [Compound 445, (S)-N-(6-(5-ethyl-1,2,4-oxadiazol-3-yl)-2,3-dihydrobenzofuran-3-yl)acetamide-2,2,2-d3] are 0.8 µM and 3 µM.
In the same order, the values of `Cc1nocc1C(=O)NC1CCc2cc(-c3noc(C(F)F)n3)ccc21` (stereo not drawn) [Compound 129, N-(5-(5-(difluoromethyl)-1,2,4-oxadiazol-3-yl)-2,3-dihydro-1H-inden-1-yl)-3-methylisoxazole-4-carboxamide] are 0.5 µM and 1.5 µM.
For `CCc1nc(-c2ccc3c(c2)OC[C@H]3NC(=O)OCCO)no1` [Compound 744, 2-hydroxyethyl N-[(3S)-6-(5-ethyl-1,2,4-oxadiazol-3-yl)-2,3-dihydro-1-benzofuran-3-yl]carbamate], the “CDMF75 IC15” value worked out at 0.3 µM and the IC50 was 1.3 µM.
In the same order, the values of `Cc1nn(C)cc1C(=O)N[C@@H]1CCc2cc(-c3nc(C(F)F)no3)ccc21` [Compound 214, (R)-N-(5-(3-(difluoromethyl)-1,2,4-oxadiazol-5-yl)-2,3-dihydro-1H-inden-1-yl)-1,3-dimethyl-1H-pyrazole-4-carboxamide] are 1.3 µM and 4.9 µM.
In the same order, the values of `O=C(N[C@@H]1CCc2cc(-c3noc(C(F)F)n3)ccc21)c1cc(CO)ccc1F` [Compound 663, (R)-N-(5-(5-(difluoromethyl)-1,2,4-oxadiazol-3-yl)-2,3-dihydro-1H-inden-1-yl)-2-fluoro-5-(hydroxymethyl)benzamide] are 2.3 µM and 19.6 µM.
`Cc1cc(C(=O)N[C@@H]2CCc3cc(-c4nnn(C)n4)ccc32)ccn1` [Compound 147, (R)-2-methyl-N-(5-(2-methyl-2H-tetrazol-5-yl)-2,3-dihydro-1H-inden-1-yl)isonicotinamide]: the “CDMF75 IC15” value is 1.3 µM and the IC50 was 6.2 µM.
The corresponding values for `O=C(N[C@@H]1CCc2cc(-c3noc(C(F)F)n3)ccc21)C1CCOC1` (stereo partly drawn) [Compound 294, N-((R)-5-(5-(difluoromethyl)-1,2,4-oxadiazol-3-yl)-2,3-dihydro-1H-inden-1-yl)tetrahydrofuran-3-carboxamide] are 15.6 µM and more than 39.2 µM.
The corresponding values for `Cc1nc(-c2ccc3c(c2)CCC3NC(=O)Nc2ccncn2)no1` (stereo not drawn) [Compound 98, 1-(5-(5-methyl-1,2,4-oxadiazol-3-yl)-2,3-dihydro-1H-inden-1-yl)-3-(pyrimidin-4-yl)urea] are 13.1 µM and more than 39.2 µM.
For `CCc1nc(-c2ccc3c(c2)CC[C@H]3NC(=O)c2cc(C)nn2C)no1` [Compound 567, (R)-N-(5-(5-ethyl-1,2,4-oxadiazol-3-yl)-2,3-dihydro-1H-inden-1-yl)-1,3-dimethyl-1H-pyrazole-5-carboxamide], the “CDMF75 IC15” value came to 0.3 µM and the IC50 was found to be 1 µM.
As for `Cc1nc(-c2ccc3c(c2)OC[C@H]3NC(=O)c2oc(C)nc2C)no1` [Compound 161, (S)-2,4-dimethyl-N-(6-(5-methyl-1,2,4-oxadiazol-3-yl)-2,3-dihydrobenzofuran-3-yl)oxazole-5-carboxamide], the “CDMF75 IC15” value is 1.1 µM and the IC50 was 4.4 µM.
